# ChEMBL document CHEMBL5352493, “Dual inhibitors of ASK1 and PDK1 kinases: Design, synthesis, molecular docking and mechanism studies of N-benzyl pyridine-2-one containing derivatives as anti-fibrotic agents” (Eur J Med Chem, 2023)
# Activity calls are given as the source filed them. The calls are words filed in the database; no cut-off is given here.
# How the values were obtained:
# [1] = Antiproliferative against rat NRK-49F cells measured after 48 hrs by CCK8 assay; format: toxicity, cell-based
# [2] = Antiproliferative against HLF1 cells measured after 48 hrs by CCK8 assay; format: toxicity, cell-based; details: human, HFL1 cells (description prints HLF1)
# [3] = Antiproliferative against rat HSC-T6 cells measured after 48 hrs by CCK8 assay; format: toxicity, cell-based
# [4] = target: T1, Mitogen-activated protein kinase kinase kinase 5 (Homo sapiens, UniProt Q99683); assay: Inhibition of human recombinant ASK1 using MBP as substrate preincubated for 1 hr followed by reagent addition incubated for 40 mins by ATP-Glo kinase assay
# T1 sequence (Q99683 whole entry): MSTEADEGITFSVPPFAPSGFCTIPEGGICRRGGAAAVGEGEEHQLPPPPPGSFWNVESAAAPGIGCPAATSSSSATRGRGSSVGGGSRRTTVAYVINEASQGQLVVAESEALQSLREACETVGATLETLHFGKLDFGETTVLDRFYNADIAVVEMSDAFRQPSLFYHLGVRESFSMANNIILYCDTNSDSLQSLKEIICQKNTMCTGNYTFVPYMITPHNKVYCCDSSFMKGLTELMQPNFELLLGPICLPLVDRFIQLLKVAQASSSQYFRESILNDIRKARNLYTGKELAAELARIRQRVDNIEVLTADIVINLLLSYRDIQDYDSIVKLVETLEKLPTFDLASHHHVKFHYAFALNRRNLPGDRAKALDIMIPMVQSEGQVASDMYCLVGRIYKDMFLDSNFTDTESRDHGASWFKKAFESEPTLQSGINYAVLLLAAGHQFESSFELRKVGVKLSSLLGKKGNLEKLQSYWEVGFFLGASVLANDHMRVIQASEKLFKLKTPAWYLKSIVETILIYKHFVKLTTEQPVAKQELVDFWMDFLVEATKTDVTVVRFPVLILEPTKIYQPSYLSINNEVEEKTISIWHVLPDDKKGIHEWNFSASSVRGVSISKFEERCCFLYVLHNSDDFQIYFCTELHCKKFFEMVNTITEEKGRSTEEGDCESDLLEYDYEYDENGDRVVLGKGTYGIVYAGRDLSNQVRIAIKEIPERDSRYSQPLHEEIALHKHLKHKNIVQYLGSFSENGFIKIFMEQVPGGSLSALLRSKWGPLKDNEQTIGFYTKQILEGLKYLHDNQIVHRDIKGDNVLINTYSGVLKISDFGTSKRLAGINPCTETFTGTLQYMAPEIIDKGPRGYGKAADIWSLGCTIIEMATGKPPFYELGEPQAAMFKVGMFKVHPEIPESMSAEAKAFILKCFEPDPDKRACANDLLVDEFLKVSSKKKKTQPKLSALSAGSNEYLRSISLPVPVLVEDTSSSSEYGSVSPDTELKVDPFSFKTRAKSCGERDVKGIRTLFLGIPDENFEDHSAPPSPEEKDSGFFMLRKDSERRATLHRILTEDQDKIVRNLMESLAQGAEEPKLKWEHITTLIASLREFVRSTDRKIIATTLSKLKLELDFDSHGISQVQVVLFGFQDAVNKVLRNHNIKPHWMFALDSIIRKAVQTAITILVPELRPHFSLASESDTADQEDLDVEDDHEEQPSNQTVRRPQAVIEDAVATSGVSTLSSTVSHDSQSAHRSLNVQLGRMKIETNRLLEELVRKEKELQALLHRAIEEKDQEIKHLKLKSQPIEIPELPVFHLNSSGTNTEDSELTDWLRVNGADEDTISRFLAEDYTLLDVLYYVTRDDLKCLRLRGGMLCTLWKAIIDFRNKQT
# [5] = Antiproliferative against human BEAS-2B cells measured after 48 hrs by CCK8 assay; format: toxicity, cell-based
# [6] = test system: HFL1; assay: Downregulation of phosphorylated ASK1 in TGF-beta1 induced HFL1 cells at 7.5 to 15 uM for 24 hrs by Western blotting analysis; format: functional, cell-based; details: Homo sapiens, dose 7.5-15 µM
# [7] = test system: HFL1; assay: Downregulation of phosphorylated p38 in TGF-beta1 induced HFL1 cells at 7.5 to 15 uM for 24 hrs by Western blotting analysis; format: functional, cell-based; details: Homo sapiens, dose 7.5-15 µM
# [8] = test system: HFL1; assay: Downregulation of phosphorylated JNK in TGF-beta1 induced HFL1 cells at 7.5 to 15 uM for 24 hrs by Western blotting analysis; format: functional, cell-based; details: Homo sapiens, dose 7.5-15 µM
# [9] = test system: HFL1; assay: Downregulation of phosphorylated PDK1 in TGF-beta1 induced HFL1 cells at 7.5 to 15 microM for 24 hrs by Western blotting analysis; format: functional, cell-based; details: Homo sapiens, dose 7.5-15 µM
# [10] = test system: HFL1; assay: Downregulation of phosphorylated Akt in TGF-beta1 induced HFL1 cells at 7.5 microM for 24 hrs by Western blotting analysis; format: functional, cell-based; details: Homo sapiens
# [11] = test system: HFL1; assay: Antifibrotic activity in TGF-beta1 induced HLF1 cells assessed as decrease in alpha SMA expression level measured at 7.5 to 15 uM after 24 hrs by Western blotting analysis; format: functional, cell-based; details: Homo sapiens, dose 7.5-15 µM
# [12] = test system: HFL1; assay: Antifibrotic activity in TGF-beta1 induced HLF1 cells assessed as decrease in collagen - I expression level measured at 7.5 to 15 uM after 24 hrs by Western blotting analysis; format: functional, cell-based; details: Homo sapiens, dose 7.5-15 µM
# [13] = test system: HFL1; assay: Antifibrotic activity in TGF-beta1 induced HLF1 cells assessed as decrease in phosphorylated smad2 level measured at 7.5 to 15 uM after 24 hrs by Western blotting analysis; format: functional, cell-based; details: Homo sapiens, dose 7.5-15 µM
# [14] = test system: HFL1; assay: Antifibrotic activity in TGF-beta1 induced HLF1 cells assessed as decrease in phosphorylated smad3 level measured at 7.5 to 15 uM after 24 hrs by Western blotting analysis; format: functional, cell-based; details: Homo sapiens, dose 7.5-15 µM
# [15] = test system: HFL1; assay: Induction of apoptosis in HLF1 cells assessed as decrease in antiapoptotic Bcl-2 protein at 7.5 to 15 uM for 24 hrs by Western blotting analysis; format: functional, cell-based; details: Homo sapiens, dose 7.5-15 µM
# [16] = test system: HFL1; assay: Induction of apoptosis in HLF1 cells assessed as viable cells at 15 uM incubated for 24 hrs measured by annexinV-FITC/PI based flow cytometric analysis (reference value: 88.3%); format: functional; details: Homo sapiens, read-out: Activity
# [17] = test system: HFL1; assay: Induction of apoptosis in HLF1 cells assessed as early apoptotic cells at 15 uM incubated for 24 hrs measured by annexinV-FITC/PI based flow cytometric analysis (reference value: 11.6%); format: functional, Homo sapiens
# [18] = test system: HFL1; assay: Induction of apoptosis in HLF1 cells assessed as late apoptotic cells at 15 uM incubated for 24 hrs measured by annexinV-FITC/PI based flow cytometric analysis (reference value: 0.08%); format: functional, Homo sapiens
# [19] = test system: HFL1; assay: Induction of apoptosis in HLF1 cells assessed as necrotic cells at 15 uM incubated for 24 hrs measured by annexinV-FITC/PI based flow cytometric analysis (reference value: 0%); format: functional, Homo sapiens
# [20] = test system: HFL1; assay: Induction of apoptosis in HLF1 cells assessed as viable cells at 7.5 uM incubated for 24 hrs measured by annexinV-FITC/PI based flow cytometric analysis (reference value: 88.3%); format: functional; details: Homo sapiens, read-out: Activity
# [21] = test system: HFL1; assay: Induction of apoptosis in HLF1 cells assessed as early apoptotic cells at 7.5 uM incubated for 24 hrs measured by annexinV-FITC/PI based flow cytometric analysis (reference value: 11.6%); format: functional, Homo sapiens
# [22] = test system: HFL1; assay: Induction of apoptosis in HLF1 cells assessed as late apoptotic cells at 7.5 uM incubated for 24 hrs measured by annexinV-FITC/PI based flow cytometric analysis (reference value: 0.08%); format: functional, Homo sapiens
# [23] = test system: HFL1; assay: Induction of apoptosis in HLF1 cells assessed as necrotic cells at 7.5 uM incubated for 24 hrs measured by annexinV-FITC/PI based flow cytometric analysis (reference value: 0%); format: functional, Homo sapiens
# [24] = test system: HFL1; assay: Induction of apoptosis in HLF1 cells assessed as viable cells at 22.5 uM incubated for 24 hrs measured by annexinV-FITC/PI based flow cytometric analysis (reference value: 88.3%); format: functional; details: Homo sapiens, read-out: Activity
# [25] = test system: HFL1; assay: Induction of apoptosis in HLF1 cells assessed as early apoptotic cells at 22.5 uM incubated for 24 hrs measured by annexinV-FITC/PI based flow cytometric analysis (reference value: 11.6%); format: functional, Homo sapiens
# [26] = test system: HFL1; assay: Induction of apoptosis in HLF1 cells assessed as late apoptotic cells at 22.5 uM incubated for 24 hrs measured by annexinV-FITC/PI based flow cytometric analysis (reference value: 0.08%); format: functional, Homo sapiens
# [27] = test system: HFL1; assay: Induction of apoptosis in HLF1 cells assessed as necrotic cells at 22.5 uM incubated for 24 hrs measured by annexinV-FITC/PI based flow cytometric analysis (reference value: 0%); format: functional, Homo sapiens
smiles,measurement,setting,value
O=C(Nc1cccc(-c2nncn2C2CC2)n1)c1cc(-c2cnn(C3CC3)c2)cn(Cc2ccccc2F)c1=O,IC50 at 48 h,[1],21.1 µM
same,IC50 at 48 h,[2],15.2 µM
same,IC50 at 48 h,[3],35.5 µM
same,IC50,[4],0.00173 µM
same,IC50 at 48 h,[5],36 µM
same,Activity,[6],Active
same,Activity,[7],Active
same,Activity,[8],Active
same,Activity,[9],Dose-Dependent Effect
same,Activity,[10],Active
same,Activity,[11],Dose-Dependent Effect
same,Activity,[12],Dose-Dependent Effect
same,Activity,[13],Active
same,Activity,[14],Active
same,Activity,[15],Active
same,viability at 15 µM,[16],67.6%
same,Activity,[17],32.3%
same,Activity,[18],0.079%
same,Activity,[19],0%
same,viability at 7.5 µM,[20],71.2%
same,Activity,[21],28.7%
same,Activity,[22],0.083%
same,Activity,[23],0%
same,viability at 22.5 µM,[24],69.6%
same,Activity,[25],30.3%
same,Activity,[26],0.104%
same,Activity,[27],0.015%
